Data set [1] in a line: Rat pharmacokinetic study (iv clearance, oral exposure). The note with it: for Rat iv CI: in vivo clearance, average of 1 to 4 animals; for Rat po DNAUC: dose-normalized AUC, 2-3 animals per experiment. It counts as in vivo. On the procedure: (§1) Mouse and rat pharmacokinetic studies were performed generally as described in Xiang et al. (Preclinical drug metabolism and pharmacokinetic evaluation of GW844520, a novel mitochondrial electron transport inhibitor. H Xiang, J McSurdy-Freed, G Subbanagounder, E Hugger, R Bambal, C Han, S Ferrar, D Gargallo and CB Davis. (2006) Journal of Pharmaceutical Sciences, 95:2657-2672) and Davis et al. (Comparative preclinical drug metabolism and pharmacokinetic evaluation of novel 4-aminoquinoline anti-malarials. C B Davis, R Bambal, G S Moorthy, E Hugger, H Xiang, B Kevin Park, A E Shone, P M O'Neill and S A Ward (2009) Journal of Pharmaceutical Sciences, 98:362-377) with the following exceptions. For some mouse studies, cannulated animals were used and serial blood samples were collected from the individuals (n=2/compound/route of administration) as opposed to using a composite study design. In some iv rat studies, drugs were infused for 1 or 2 h and a single blood sample collected to estimate clearance assuming steady-state conditions (n=2/compound). This assay was employed as an initial PK screen to prioritize compounds for further study.
(§2) Rodent pharmacokinetic (PK) data were collected on the exemplified compounds according to the methods described above. In vivo clearance (Cl) data are reported as the average of 1 to 4 animals across 1 to 2 experiments and are categorized as follows. In rats, a ‘low’ clearance is designated as <17 mL/min/kg, a ‘moderate’ clearance is designated as 17-39 mL/min/kg, and a ‘high’ clearance is designated as >39 mL/min/kg. In mice, a ‘low’ clearance is designated as <30 mL/min/kg, a ‘moderate’ clearance is designated as 30-70 mL/min/kg, and a ‘high’ clearance is designated as >70 mL/min/kg. In vivo oral exposure (po) data, reported as average dose-normalized AUCs (DNAUC) per experiment of 2-3 animals, are categorized as ‘poor’ for DNAUC ≦101 ng·h/mL/mg/kg and ‘good’ for DNAUC >101 ng·h/mL/mg/kg. When multiple experiments were performed under different conditions, the totality of the data was considered. In cases where both ‘poor’ and ‘good’ oral exposures were observed, a designation of ‘mixed’ is utilized to represent mixed and unoptimized results.

Data set [2] can be described thus: Mouse pharmacokinetic study (iv clearance, oral exposure). The note with it: for Mouse iv CI: in vivo clearance, average of 1 to 4 animals; for Mouse po DNAUC: dose-normalized AUC, 2-3 animals per experiment. The format is in vivo. Also noted: key to Mouse po DNAUC: ‘poor’ for DNAUC ≦101 ng·h/mL/mg/kg; ‘good’ for DNAUC >101 ng·h/mL/mg/kg; In cases where both ‘poor’ and ‘good’ oral exposures were observed, a designation of ‘mixed’ is utilized. As to the method: as §1, §2

Each structure is given as a SMILES string.

Take `CCC(=O)N1CC[C@@H](Cc2n[nH]c(=O)n2-c2ccc(-c3ccc4cccnc4c3)cc2F)C1` [#196 from WO2011/103546A1, 4-[2-fluoro-4-(7-quinolinyl)phenyl]-5-{[(3S)-1-propanoyl-3-pyrrolidinyl]methyl}-2,4-dihydro-3H-1,2,4-triazol-3-one, reference compound]: in data set [1], the “Rat iv CI” value is recorded as “moderate (a ‘moderate’ clearance is designated as 17-39 mL/min/kg)” and the “Rat po DNAUC” value was “poor (‘poor’ for DNAUC ≦101 ng·h/mL/mg/kg)”. In addition, in data set [2], the “Mouse iv CI” value is listed as “moderate (a ‘moderate’ clearance is designated as 30-70 mL/min/kg)” and the “Mouse po DNAUC” value is listed as “poor (‘poor’ for DNAUC ≦101 ng·h/mL/mg/kg)”.

In the case of `CCC(=O)N1CC[C@@H](Cc2n[nH]c(=O)n2-c2ccc(-c3ccc4cc(Cl)cnc4c3)cc2F)C1` [Example 6, (S)-4-(4-(3-chloroquinolin-7-yl)-2-fluorophenyl)-3-((1-propionylpyrrolidin-3-yl)methyl)-1H-1,2,4-triazol-5(4H)-one], in data set [1], the “Rat iv CI” value is reported as “moderate (a ‘moderate’ clearance is designated as 17-39 mL/min/kg)” and the “Rat po DNAUC” value is “good (‘good’ for DNAUC >101 ng·h/mL/mg/kg)”. Besides, in data set [2], the “Mouse iv CI” value is “low (In mice, a ‘low’ clearance is designated as <30 mL/min/kg)” and the “Mouse po DNAUC” value is reported as “mixed”.

As to `CCC(=O)N1CC[C@@H](Cc2nn(C)c(=O)n2-c2ccc(-c3ccc4cc(C)cnc4c3)cc2F)C1` [Example 7, (S)-4-(2-fluoro-4-(3-methylquinolin-7-yl)phenyl)-1-methyl-3-((1-propionylpyrrolidin-3-yl)methyl)-1H-1,2,4-triazol-5(4H)-one], in data set [1], the “Rat iv CI” value is given as “low (In rats, a ‘low’ clearance is designated as <17 mL/min/kg)” and the “Rat po DNAUC” value is “good (‘good’ for DNAUC >101 ng·h/mL/mg/kg)”. Moreover, in data set [2], the “Mouse iv CI” value is recorded as “low (In mice, a ‘low’ clearance is designated as <30 mL/min/kg)” and the “Mouse po DNAUC” value is reported as “good (‘good’ for DNAUC >101 ng·h/mL/mg/kg)”.

Turning to `CCC(=O)N1CC[C@@H](Cc2nn(C)c(=O)n2-c2ccc(-c3ccc4cc(Cl)cnc4c3)cc2F)C1` [Example 8, (S)-4-(4-(3-chloroquinolin-7-yl)-2-fluorophenyl)-1-methyl-3-((1-propionylpyrrolidin-3-yl)methyl)-1H-1,2,4-triazol-5(4H)-one], in data set [1], the “Rat iv CI” value is on record as “low (In rats, a ‘low’ clearance is designated as <17 mL/min/kg)” and the “Rat po DNAUC” value is given as “good (‘good’ for DNAUC >101 ng·h/mL/mg/kg)”. In addition, in data set [2], the “Mouse iv CI” value was “low (In mice, a ‘low’ clearance is designated as <30 mL/min/kg)” and the “Mouse po DNAUC” value was “good (‘good’ for DNAUC >101 ng·h/mL/mg/kg)”.

On to `Cn1nc(C[C@@H]2CCN(C(=O)C3CC3)C2)n(-c2ccc(-c3ccc4cc(Cl)cnc4c3)cc2F)c1=O` [Example 9, (S)-4-(4-(3-chloroquinolin-7-yl)-2-fluorophenyl)-3-((1-(cyclopropanecarbonyl)pyrrolidin-3-yl)methyl)-1-methyl-1H-1,2,4-triazol-5(4H)-one], for which, in data set [1], the “Rat iv CI” value is “moderate (a ‘moderate’ clearance is designated as 17-39 mL/min/kg)” and the “Rat po DNAUC” value is “good (‘good’ for DNAUC >101 ng·h/mL/mg/kg)”. The “Mouse iv CI” value in data set [2] was “low (In mice, a ‘low’ clearance is designated as <30 mL/min/kg)”.

`CCC(=O)N1CC[C@@H](Cc2nn(C)c(=O)n2-c2ccc(-c3ccc4cc(F)cnc4c3)cc2F)C1` [Example 10, (S)-4-(2-fluoro-4-(3-fluoroquinolin-7-yl)phenyl)-1-methyl-3-((1-propionylpyrrolidin-3-yl)methyl)-1H-1,2,4-triazol-5(4H)-one]: the “Rat iv CI” value in data set [1] is on record as “low (In rats, a ‘low’ clearance is designated as <17 mL/min/kg)”. Besides, in data set [2], the “Mouse iv CI” value is on record as “low (In mice, a ‘low’ clearance is designated as <30 mL/min/kg)”.

Regarding `O=C(C1CC1)N1CC[C@@H](Cc2n[nH]c(=O)n2-c2ccc(-c3ccc4cc(F)cnc4c3)cc2F)C1` [Example 3, (S)-3-((1-(cyclopropanecarbonyl)pyrrolidin-3-yl)methyl)-4-(2-fluoro-4-(3-fluoroquinolin-7-yl)phenyl)-1H-1,2,4-triazol-5(4H)-one], the “Rat iv CI” value in data set [1] is given as “moderate (a ‘moderate’ clearance is designated as 17-39 mL/min/kg)”.

Consider `Cc1cnc2cc(-c3ccc(-n4c(C[C@@H]5CCN(C(=O)C6CC6)C5)n[nH]c4=O)c(F)c3)ccc2c1` [Example 1, (S)-3-((1-(cyclopropanecarbonyl)pyrrolidin-3-yl)methyl)-4-(2-fluoro-4-(3-methylquinolin-7-yl)phenyl)-1H-1,2,4-triazol-5(4H)-one], for which, in data set [1], the “Rat iv CI” value is “moderate (a ‘moderate’ clearance is designated as 17-39 mL/min/kg)” and the “Rat po DNAUC” value is “poor (‘poor’ for DNAUC ≦101 ng·h/mL/mg/kg)”. In addition, in data set [2], the “Mouse iv CI” value is given as “low (In mice, a ‘low’ clearance is designated as <30 mL/min/kg)” and the “Mouse po DNAUC” value is “good (‘good’ for DNAUC >101 ng·h/mL/mg/kg)”.

In the case of `O=C(C1CC1)N1CC[C@@H](Cc2n[nH]c(=O)n2-c2ccc(-c3ccc4cc(Cl)cnc4c3)cc2F)C1` [Example 2, (S)-4-(4-(3-chloroquinolin-7-yl)-2-fluorophenyl)-3-((1-(cyclopropanecarbonyl)pyrrolidin-3-yl)methyl)-1H-1,2,4-triazol-5(4H)-one], in data set [1], the “Rat iv CI” value is listed as “moderate (a ‘moderate’ clearance is designated as 17-39 mL/min/kg)” and the “Rat po DNAUC” value is reported as “good (‘good’ for DNAUC >101 ng·h/mL/mg/kg)”. Also, in data set [2], the “Mouse iv CI” value was “low (In mice, a ‘low’ clearance is designated as <30 mL/min/kg)” and the “Mouse po DNAUC” value is “good (‘good’ for DNAUC >101 ng·h/mL/mg/kg)”.

`O=C(C1CC1)N1CC[C@@H](Cc2n[nH]c(=O)n2-c2ccc(-c3ccc4cccnc4c3)cc2F)C1` [#124 from WO2011/103546A1, 5-{[(3S)-1-(cyclopropylcarbonyl)-3-pyrrolidinyl]methyl}-4-[2-fluoro-4-(7-quinolinyl)phenyl]-2,4-dihydro-3H-1,2,4-triazol-3-one, reference compound]: in data set [1], the “Rat iv CI” value is listed as “high (a ‘high’ clearance is designated as >39 mL/min/kg)” and the “Rat po DNAUC” value is recorded as “poor (‘poor’ for DNAUC ≦101 ng·h/mL/mg/kg)”. In addition, in data set [2], the “Mouse iv CI” value is recorded as “moderate (a ‘moderate’ clearance is designated as 30-70 mL/min/kg)” and the “Mouse po DNAUC” value is recorded as “poor (‘poor’ for DNAUC ≦101 ng·h/mL/mg/kg)”.

With `CCC(=O)N1CC[C@@H](Cc2n[nH]c(=O)n2-c2ccc(-c3ccc4cc(F)cnc4c3)cc2F)C1` [Example 4, (S)-4-(2-fluoro-4-(3-fluoroquinolin-7-yl)phenyl)-3-((1-propionylpyrrolidin-3-yl)methyl)-1H-1,2,4-triazol-5(4H)-one], in data set [1], the “Rat iv CI” value was “low (In rats, a ‘low’ clearance is designated as <17 mL/min/kg)” and the “Rat po DNAUC” value is recorded as “poor (‘poor’ for DNAUC ≦101 ng·h/mL/mg/kg)”. For the same molecule, in data set [2], the “Mouse iv CI” value is “low (In mice, a ‘low’ clearance is designated as <30 mL/min/kg)” and the “Mouse po DNAUC” value is recorded as “good (‘good’ for DNAUC >101 ng·h/mL/mg/kg)”.

Consider `CCC(=O)N1CC[C@@H](Cc2n[nH]c(=O)n2-c2ccc(-c3ccc4cc(C)cnc4c3)cc2F)C1` [Example 5, (S)-4-(2-fluoro-4-(3-methylquinolin-7-yl)phenyl)-3-((1-propionylpyrrolidin-3-yl)methyl)-1H-1,2,4-triazol-5(4H)-one], for which, in data set [1], the “Rat iv CI” value was “low (In rats, a ‘low’ clearance is designated as <17 mL/min/kg)” and the “Rat po DNAUC” value was “good (‘good’ for DNAUC >101 ng·h/mL/mg/kg)”. In data set [2], the “Mouse iv CI” value is recorded as “low (In mice, a ‘low’ clearance is designated as <30 mL/min/kg)” and the “Mouse po DNAUC” value was “mixed”.

The values above are taken from patent US9725437B2, “Fatty acid synthase inhibitors” (GlaxoSmithKline Intellectual Property (No.2) Limited, priority 2013, dated 2017).
